Values of other authors as cited in patent publication US20070196901A1, “Kahalalide-producing bacteria” (priority 2003, published 2007).

Experiments:
HIV-1 = conditions: read-out: HIV-1 EC50; antiviral
[1] = test system: AIDS-opportunistic infection pathogens; conditions: against AIDS-opportunistic infection pathogens, compared with reference drugs

kahalalide F [KF]
efficacy in clinical trials against prostate cancer (prostate cancer): effective
inhibition of M. tuberculosis (M. tuberculosis): moderately inhibitory
EC50 (HIV-1): 14.2 µM
antifungal activity [1]: comparable to the activity of the drugs Amphotericin B and Ketoconazole/Rifampin
